The term IC50 denotes the concentration needed to halve the response being measured. The melting point is the temperature of the solid-liquid transition. One may read the inhibition as the relative decrease from the control value, in per cent.

SMILES strings stand for the structures. Some results are limits rather than exact numbers.

For series [1], the target named is T1, human FSH receptor (Homo sapiens, UniProt P23945).
T1 construct: host or cells: CHO-K1 (CHO FSH-R 6CRE-Luc, 1D7 cells)
T1 sequence (P23945 18-695): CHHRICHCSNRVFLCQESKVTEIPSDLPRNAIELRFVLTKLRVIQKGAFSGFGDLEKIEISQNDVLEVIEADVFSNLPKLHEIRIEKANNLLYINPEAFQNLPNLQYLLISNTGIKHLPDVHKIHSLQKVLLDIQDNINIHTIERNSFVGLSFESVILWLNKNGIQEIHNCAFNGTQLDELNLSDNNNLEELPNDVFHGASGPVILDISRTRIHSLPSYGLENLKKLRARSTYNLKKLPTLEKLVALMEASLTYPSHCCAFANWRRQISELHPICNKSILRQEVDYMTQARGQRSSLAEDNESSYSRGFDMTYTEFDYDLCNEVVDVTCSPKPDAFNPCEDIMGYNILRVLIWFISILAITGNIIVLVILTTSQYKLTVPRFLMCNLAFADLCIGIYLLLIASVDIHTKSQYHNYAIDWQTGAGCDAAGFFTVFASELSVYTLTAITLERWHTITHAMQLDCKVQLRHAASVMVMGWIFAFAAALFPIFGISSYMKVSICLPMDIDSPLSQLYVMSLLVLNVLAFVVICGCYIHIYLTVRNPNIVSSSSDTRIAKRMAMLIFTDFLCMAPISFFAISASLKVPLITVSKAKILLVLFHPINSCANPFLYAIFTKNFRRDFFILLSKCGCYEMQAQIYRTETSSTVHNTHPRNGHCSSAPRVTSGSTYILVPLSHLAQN
Description: Follicle-Stimulating Hormone Receptor-Dependent Cre-Luciferase Reporter Gene Assay (CHO FSH-R 6CRE-Luc cells). The format is cell-based. Particulars: for IC50: dose-response format, in presence of EC50 of purified human FSH; for inhibition at 30 µM: 2-dose format, concentration in parentheses 30 μM, inhibition of the response to EC50 of FSH. The source says: Follicle-Stimulating Hormone Receptor-Dependent Cre-Luciferase Reporter Gene Assay for the Identification of Follicle-Stimulating Hormone (FSH) Antagonists
A Chinese hamster ovarian cell line that stably produces the human FSH receptor and a luciferase reporter gene regulated by cAMP response elements was used to identify and determine the relative potencies of human FSH receptor antagonists. See for example, Kelton, C. A., et al. Mol. Cell. Endocrinol. 89:141-151 (1992), Tilly, J. L., et al. Endocrinology 131:799-806(1992), and George, S. E., et al. J. Biomol. Screening 2:235-240 (1997).
Compound Vehicle: Stock compounds were solubilized in an appropriate vehicle, e.g., phosphate buffered saline (PBS) or dimethyl sulfoxide (DMSO), at 30 mM. The compounds were subsequently diluted in DMSO to working dilutions of 1 and 20 or 30 mM for 2-dose testing format and 1 μM-10 mM for dose-response format. The DMSO dilutions were diluted 500-fold in sterile growth medium [D-MEM/F-12 (GIBCO/BRL; Grand Island, NY) containing 15 mM HEPES, 2 mM 1-glutamine, pyridoxine hydrochloride, phenol red and 5% FetalClone® II (HyClone Laboratories, Inc; Logan, Utah), 0.2% DMSO, 100 units penicillin G/ml, and 100 μg streptomycin sulfate/ml (GIBCO/BRL)]. The concentration of the vehicle in each of the compound dilutions was the same.
Positive Controls: Purified human FSH (>98%) was purchased from Cortex Biochem, Inc. (San Leandro, Calif.) and 3-[(2S*,5R*)-5-{[2-(1H-Indol-3-yl)-ethylcarbamoyl]-methyl}-4-oxo-2-(5-phenylethynyl-thiophen-2-yl)-thiazolidin-3-yl]-benzamide (an FSH-R thiazolidinone antagonist) was prepared by processes described by R. A. Scheuerman et al. in U.S. Pat. No. 6,426,357 (Affymax).
The CHO FSH-R 6CRE-Luc cells (1D7 cells) were obtained from Affymax (Palo Alto, Calif.). These Chinese hamster ovary cells (CHO-K1) were engineered genetically to stably express the recombinant human FSH receptor gene and a luciferase reporter gene under the regulation of 6 copies of a cAMP response element. The cells were plated one day prior to treatment into 96-well white opaque plates at a density of 50,000 cells/100 μl/well in growth medium. On the day of treatment, the growth medium was removed from the wells by aspiration and 50 μl of fresh growth medium was added to each well. The cells were incubated at 37° C. in a humidified incubator with 5% CO2/95% air.
The treated cells were incubated for 4 hours at 37° C. in a humidified incubator with 5% CO2/95% air. At the end of the incubation period, luciferase activity was measured by chemiluminescence using a commercially available kit (LucScreen, Tropix, Inc., Bedford, Mass.) according to the manufacturer's specifications, except that Buffer 1 and Buffer 2 were mixed together in equal proportion prior to the addition of 100 μl of the combined reagents to each well. Chemiluminescence was detected using a luminometer (EG & G Berthold Microlumat LB 96 P, Wallac, Gaithersburg, Md.) with chemiluminescence measured for 1 sec/well. Background luminescence was measured for each well prior to the addition of the LucScreen reagent.
In the 96-well 2-dose format, each compound was tested in duplicate at each dose. […] One plate was used to test a maximum of 22 compounds.
The EC50 of purified human FSH alone was tested in triplicate with each test compound. The doses chosen to test each compound were extrapolated from the initial 2-dose screening process. Along with the test compounds, purified human FSH also was tested in a dose response (0.03, 0.1, 0.3, 1, 3, 10, and 30 ng/ml) for a positive control and quality control. One plate was used for 3 test compounds and the FSH positive control.
Luciferase activity is expressed as relative light units/sec/well. Luciferase activity in antagonist was compared to the appropriate negative and positive controls. For 2-dose testing, results are reported as luciferase activity and are expressed as percent inhibition of the response obtained from the EC50 of FSH.

`O=C(NCCc1ccc(O)cc1)c1ccc2n1Cc1ccccc1N(C(=O)COc1ccc(Cl)cc1)C2` [Example 68, 10-[(4-CHLOROPHENOXY)ACETYL]-N-[2-(4-HYDROXYPHENYL)ETHYL]-10,11-DIHYDRO-5H-PYRROLO[2,1-C][1,4]BENZODIAZEPINE-3-CARBOXAMIDE] yielded a melting point of 206 to 207 °C. Also, the IC50 in series [1] was 13.2 µM.

Molecule `O=C(NCc1ccc2c(c1)OCO2)c1ccc2n1Cc1ccccc1N(C(=O)COc1ccc(Cl)cc1)C2` [Example 69] showed a melting point of 168 to 169 °C. Moreover, the inhibition at 30 µM in series [1] was 21%.

On to `Cc1ccc(CNC(=O)c2ccc3n2Cc2ccccc2N(C(=O)COc2ccc(Cl)cc2)C3)cc1` [Example 70, 10-[(4-CHLOROPHENOXY)ACETYL]-N-(4-METHYLBENZYL)-10,11-DIHYDRO-5H-PYRROLO[2,1-C][1,4]BENZODIAZEPINE-3-CARBOXAMIDE], for which the melting point was in the range of 174 to 176 °C. Further, in series [1], the inhibition at 30 µM was determined as 17%.

Molecule `Cc1cccc(CNC(=O)c2ccc3n2Cc2ccccc2N(C(=O)COc2ccc(Cl)cc2)C3)c1` [Example 71, 10-[(4-CHLOROPHENOXY)ACETYL]-N-(3-METHYLBENZYL)-10,11-DIHYDRO-5H-PYRROLO[2,1-C][1,4]BENZODIAZEPINE-3-CARBOXAMIDE] came in with a melting point of 130 to 131 °C. Also, the inhibition at 30 µM in series [1] is 7%.

`O=C(NCc1cccc(C(F)(F)F)c1)c1ccc2n1Cc1ccccc1N(C(=O)COc1ccc(Cl)cc1)C2` [Example 72, 10-[(4-CHLOROPHENOXY)ACETYL]-N-[3-(TRIFLUOROMETHYL)BENZYL]-10,11-DIHYDRO-5H-PYRROLO[2,1-C][1,4]BENZODIAZEPINE-3-CARBOXAMIDE] yielded a melting point of 143 to 145 °C. The IC50 in series [1] is above 30 µM.

The molecule `O=C(NCC(O)c1ccccc1)c1ccc2n1Cc1ccccc1N(C(=O)COc1ccc(Cl)cc1)C2` (stereo not drawn) [Example 73] gave a melting point of 157 to 158 °C. In addition, the IC50 in series [1] is 25.1 µM.

`O=C(Nc1ccc(-c2ccccc2)cc1)c1ccc2n1Cc1ccccc1N(C(=O)COc1ccc(Cl)cc1)C2` [Example 74, N-(1,1′-BIPHENYL-4-YL)-10-[(4-CHLOROPHENOXY)ACETYL]-10,11-DIHYDRO-5H-PYRROLO[2,1-C][1,4]BENZODIAZEPINE-3-CARBOXAMIDE] came in with a melting point of 201 to 202 °C. Moreover, the inhibition at 30 µM in series [1] was determined as 6%.

Turning to `COC(=O)c1ccc(CNC(=O)c2ccc3n2Cc2ccccc2N(C(=O)COc2ccc(Cl)cc2C)C3)cc1` [Example 77, METHYL 4-{[({10-[(4-CHLORO-2-METHYLPHENOXY)ACETYL]-10,11-DIHYDRO-5H-PYRROLO[2, 1-C][1,4]BENZODIAZEPIN-3-YL}CARBONYL)AMINO]METHYL}BENZOATE], the melting point was 165 to 167 °C. Further, the inhibition at 30 µM in series [1] amounted to 3.5%.

Regarding `COc1cc(CNC(=O)c2ccc3n2Cc2ccccc2N(C(=O)COc2ccc(Cl)cc2C)C3)ccc1O` [Example 78, 10-[(4-CHLORO-2-METHYLPHENOXY)ACETYL]-N-(4-HYDROXY-3-METHOXYBENZYL)-10,11-DIHYDRO-5H-PYRROLO[2,1-C][1,4]BENZODIAZEPINE-3-CARBOXAMIDE], the melting point lay in the range of 167 to 168 °C. The inhibition at 30 µM in series [1] amounted to 33%.

Consider `Cc1cc(-c2ccccc2C)ccc1NC(=O)c1ccc2n1Cc1ccccc1N(C(=O)COc1ccc(Cl)cc1)C2` [Example 79], for which the melting point is 159 to 161 °C. The inhibition at 30 µM in series [1] turned out to be 13%.

`O=C(NCc1ccc(Cl)c(Cl)c1)c1ccc2n1Cc1ccccc1N(C(=O)CSc1ccc(Br)cc1)C2` [Example 81, 10-{[(4-BROMOPHENYL)THIO]ACETYL}-N-(3,4-DICHLOROBENZYL)-10,11-DIHYDRO-5H-PYRROLO[2,1-C][1,4]BENZODIAZEPINE-3-CARBOXAMIDE] had a melting point of 150 °C. The IC50 in series [1] is above 30 µM.

With `COc1cc(CNC(=O)c2ccc3n2Cc2ccccc2N(C(=O)CSc2ccc(Br)cc2)C3)ccc1O` [Example 82, 10-{[(4-BROMOPHENYL)THIO]ACETYL}-N-(4-HYDROXY-3-METHOXYBENZYL)-10,11-DIHYDRO-5H-PYRROLO[2,1-C][1,4]BENZODIAZEPINE-3-CARBOXAMIDE], the melting point is 168 °C. Also, the inhibition at 30 µM in series [1] came out at 37%.

For `Cc1ccc(CNC(=O)c2ccc3n2Cc2ccccc2N(C(=O)CSc2ccc(Br)cc2)C3)cc1` [Example 83, 10-{[(4-BROMOPHENYL)THIO]ACETYL}-N-(4-METHYLBENZYL)-10,11-DIHYDRO-5H-PYRROLO[2,1-C][1,4]BENZODIAZEPINE-3-CARBOXAMIDE], the melting point lay within 131 to 132 °C. Also, in series [1], the inhibition at 30 µM was 24%.

In the case of `O=C(NCc1ccc2c(c1)OCO2)c1ccc2n1Cc1ccccc1N(C(=O)CSc1ccc(Br)cc1)C2` [Example 84], the melting point lay in the range of 154 to 155 °C. Besides, the inhibition at 30 µM in series [1] was determined as 27%.

`O=C(NCc1cccc(C(F)(F)F)c1)c1ccc2n1Cc1ccccc1N(C(=O)CSc1ccc(Br)cc1)C2` [Example 85, 10-{[(4-BROMOPHENYL)THIO]ACETYL}-N-[3-(TRIFLUOROMETHYL)BENZYL]-10,11-DIHYDRO-5H-PYRROLO[2,1-C][1,4]BENZODIAZEPINE-3-CARBOXAMIDE] displayed a melting point of 102 °C. In series [1], the inhibition at 30 µM is 24%.

In the case of `O=C(NCCc1ccc(O)cc1)c1ccc2n1Cc1ccccc1N(C(=O)CSc1ccc(Br)cc1)C2` [Example 86, 10-{[(4-BROMOPHENYL)THIO]ACETYL}-N-[2-(4-HYDROXYPHENYL)ETHYL]-10,11-DIHYDRO-5H-PYRROLO[2,1-C][1,4]BENZODIAZEPINE-3-CARBOXAMIDE], the melting point lay within 168 to 169 °C. The inhibition at 30 µM in series [1] was 35%.

Molecule `O=C(NC1CCCc2ccccc21)c1ccc2n1Cc1ccccc1N(C(=O)CSc1ccc(Br)cc1)C2` (stereo not drawn) [Example 87, 10-{[(4-BROMOPHENYL)THIO]ACETYL}-N-(1,2,3,4-TETRAHYDRONAPHTHALEN-1-YL)-10,11-DIHYDRO-5H-PYRROLO[2,1-C][1,4]BENZODIAZEPINE-3-CARBOXAMIDE] showed a melting point of 163 to 165 °C. Also, the inhibition at 30 µM in series [1] was found to be 3%.

`Cc1ccccc1-c1ccc(C(=O)N2Cc3ccc(C(=O)NCc4ccc(C(=O)c5ccccc5)cc4)n3Cc3ccccc32)cc1C` [Example 88]: the melting point lay within 148 to 150 °C. In addition, in series [1], the IC50 was above 30 µM.

These data come from patent US7691848B2, “Pyrrolobenzodiazepine arylcarboxamides and derivatives thereof as follicle-stimulating hormone receptor antagonists” (Wyeth, priority 2005, dated 2010).
